Here are results for two compounds from patent US8691980B2 (National Taipei University of Technology, priority 2011, dated 2014).

Each structure is given as a SMILES string.

The target of series [1] is T1, Salicylate hydroxylase (SHL) (Pseudomonas putida, UniProt P23262).
T1 construct: purchased GDS Technology Inc. (USA)
T1 sequence (P23262 1-434): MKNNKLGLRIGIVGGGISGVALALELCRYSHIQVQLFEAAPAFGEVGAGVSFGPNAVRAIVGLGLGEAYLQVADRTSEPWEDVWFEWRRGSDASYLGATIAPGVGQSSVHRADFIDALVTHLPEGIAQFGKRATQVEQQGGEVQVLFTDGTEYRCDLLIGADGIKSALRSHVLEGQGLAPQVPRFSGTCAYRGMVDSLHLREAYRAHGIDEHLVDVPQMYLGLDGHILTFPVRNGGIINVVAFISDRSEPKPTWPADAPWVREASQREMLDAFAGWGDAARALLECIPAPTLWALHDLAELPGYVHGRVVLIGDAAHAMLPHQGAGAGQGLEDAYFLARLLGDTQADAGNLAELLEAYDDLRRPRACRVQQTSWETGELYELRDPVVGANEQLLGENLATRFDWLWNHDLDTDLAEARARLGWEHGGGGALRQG
In words: Fluorescence profile of the latent fluorophore in the presence of SHL and NADH, aerobic. In kind it is biochemical. As for the experimental part:
(§1) ^1H NMR and ^13C NMR spectrums were obtained by Bruker AMX-500 spectrophotometer wherein chemical shift values were expressed in ppm relative to tetramethylsilane (δ unit); fluorescence intensity was measured by using a fluorescence-grade quartz cuvette and a spectrofluorometer, i.e. Horiba Jobin Yvon Fluoromax-4. The other chemicals are purchased from Acros, Aldrich, TCI or Sigma Chemical corporations and directly used without purification. […] Chem. Soc. Jp. 1985, 58, 731; the entire contents thereof are incorporated herein by reference. SHL is obtained from GDS Technology Inc. (USA). D-3-hydroxybutyric acid dehydrogenase is purchased from TOYOBO (Product Code: HBD-301). Cholesterol dehydrogenase is purchased from Genzyme Corp. All measurements were performed in 50 mM Tris-HCl (TRIZMA Base, Tris, pH8). The latent fluorophore is synthesized in DMSO and should be added to a Tris-HCl buffer before use to make the concentration of DMSO not exceed 0.1% (v/v).
(§2) The fluorescence profile of Compound C was analyzed in the presence of SHL and NADH in an aerobic environment. […] However, in case that Compound C was kept in a solution containing both 1 unit of SHL and 1 mM NADH at 37 °C, the fluorescence intensity of Compound B increases 57 times in 90 minutes, as shown in FIG. 1 (dotted line representing the baseline).

Series [2] deals with SHL and 3-hydroxybutyric acid dehydrogenase. In words: Two-enzyme system: SHL and 3-hydroxybutyric acid dehydrogenase. Type of series: biochemical. The note with it: Compound C 10 μM; substrate 3-hydroxybutyric acid. As for the experimental part:
as §1, with “(v/v). […]” for “(v/v).”
(§3) The measurement of fluorescence was performed at an excitation wavelength λex of 500 nm and an emission wavelength λem of 595 nm. […] The measured fluorescence intensity after subtraction of baseline (concentration of the biochemical molecule to be tested is zero) intensity therefrom was plotted versus the concentration of the biochemical molecule to be tested.

Series [3] in a line: Latent fluorophore kept in SHL alone, NADH alone or Tris-HCl buffer (background fluorescence / stability). In kind it is physicochemical. The following applies: 20 μM. The protocol:
as §1, §2

The subject of series [4] is SHL and cholesterol dehydrogenase. In words: Two-enzyme system: SHL and cholesterol dehydrogenase. In kind it is biochemical. The following applies: Compound C 10 μM. As for the experimental part:
as §1, with “(v/v). […]” for “(v/v).”
as §3

Series [5] concerns the target T1, Salicylate hydroxylase (SHL). In words: Effect of salicylic acid on the fluorescence intensity (SHL, Compound C, NADH). In kind it is biochemical. The following applies: salicylic acid added to SHL, Compound C and NADH, aerobic; fluorescence decreased with increasing concentration. The protocol:
as §1

For series [6] the following is noted: cited from earlier work.

On to `N#Cc1c(-c2nc3ccccc3s2)c(=O)oc2cc(OCc3ccc(C(=O)O)c(O)c3)ccc12` [Compound C], for which the “time until fluorescence could be detected” value in series [1] (1 unit SHL and 1 mM NADH added to Tris-HCl buffer containing Compound C) is reported as “within several seconds”. Also, the “increase of fluorescence intensity” value in series [1] (Compound C in solution with 1 unit SHL and 1 mM NADH, 37 °C, in 90 minutes) came to 57 times. For the same compound, the “fluorescence intensity, only SHL added” value in series [1] (only SHL added to Tris-HCl buffer containing Compound C, after 10 minutes) is “near the baseline”. Further, the “fluorescence intensity after addition of the substrate” value in series [2] and in series [4] was “significantly increased” in each case. For the same compound, the “fluorescence intensity, kept in solution of NADH alone” value in series [3] (kept even for several months) is listed as “near the baseline”. Also, the “fluorescence intensity, kept in solution of SHL alone” value in series [3] (kept even for several months) is reported as “near the baseline”. For the same compound, the “fluorescence intensity, kept in Tris-HCl buffer solution” value in series [3] (pH 8, kept even for several months) is “near the baseline”.

Regarding `O=C(O)c1ccccc1O` [salicylic acid], the “conversion of Compound C to a fluorogenic compound” value in series [5] is recorded as “inhibited”. Besides, in series [6], the “blood level that may be fatal” value was “above 4.3 mM”.
